Values of other authors, collected in US20110281902A1, “COMBINATIONS COMPRISING A PROTEIN KINASE INHIBITOR BEING A PYRIMIDYLAMINOBENZAMIDE COMPOUND AND A HSP90 INHIBITOR SUCH AS 17-AAG” (priority 2005, published 2011).

Experiments:
[1] = clinical trials in hematological malignancies and solid tumors
[2] = makes it difficult to formulate/administer

In the case of `C=CCNC1=C2C[C@@H](C)C[C@H](OC)[C@H](O)[C@@H](C)/C=C(\C)[C@H](OC(N)=O)[C@@H](OC)/C=C\C=C(/C)C(=O)NC(=CC1=O)C2=O` [17-AAG, 17-allylamino-17-demethoxygeldanamycin], the dose limiting toxicity [1] is given as “hepatic” and the solubility [2] is given as “poor solubility”.
